Reference: DBAASP
In brackets after ≈: the same amount, converted by molar mass.

Tests used:
Test in all cases: ≥ marks a high value that may be exact or a test limit, other limits are often not marked, values filed in µg/mL are converted to µM
[1] = system: Streptococcus mutans UA159
[2] = system: Streptococcus sanguinis ATCC 10556
[3] = system: Streptococcus sobrinus ATCC 6715
[4] = system: Staphylococcus aureus ATCC 29231
[5] = system: Enterococcus faecium E007
[6] = system: Candida albicans ATCC 10231
[7] = system: Pseudomonas aeruginosa PA14
[8] = system: Acinetobacter baumannii ATCC 7978
[9] = system: Pseudomonas aeruginosa ATCC 27853
[10] = system: Enterococcus faecalis ATCC 29212
[11] = system: Klebsiella pneumoniae KK3 9904
[12] = system: Staphylococcus epidermidis RP62A
[13] = system: Proteus mirabilis ATCC 25933
[14] = system: Staphylococcus aureus NCTC 8325
[15] = system: Enterobacter cloacae NHTCC 53001
[16] = system: Escherichia coli ATCC 25922
[17] = system: Candida albicans ATCC 90028
[18] = system: Staphylococcus saprophyticus
[19] = system: Bacillus subtilis CCT 2471
[20] = system: Pseudomonas aeruginosa ATCC 15442
[21] = system: Staphylococcus epidermidis
[22] = system: Staphylococcus aureus ATCC 6538
[23] = system: Escherichia coli CCT 1371
[24] = system: Candida albicans
[25] = system: Staphylococcus aureus ATCC 25923
[26] = system: Escherichia coli UB1005
[27] = system: Pseudomonas aeruginosa 919
[28] = system: Pseudomonas aeruginosa PAO1
[29] = system: Salmonella enterica serovar Typhimurium
[30] = system: Pseudomonas aeruginosa 253
[31] = system: Pseudomonas aeruginosa H103
[32] = system: Pseudomonas aeruginosa 910

## NCCCC[C@H](NC(=O)[C@H](CCCCN)NC(=O)[C@H](Cc1ccccc1)NC(=O)[C@H](Cc1ccccc1)NC(=O)[C@H](CCCCN)NC(=O)[C@H](CCCCN)NC(=O)[C@H](Cc1ccccc1)NC(=O)[C@H](Cc1ccccc1)NC(=O)[C@H](CCCCN)NC(=O)[C@@H](N)Cc1ccccc1)C(=O)N[C@@H](Cc1c[nH]c2ccccc12)C(=O)O [FKFFKKFFKKW]
[1]
  MIC: 10.1 µM (≈ 16 µg/mL)
[2]
  MIC: 20.2 µM (≈ 32 µg/mL)
[3]
  MIC: 10.1 µM (≈ 16 µg/mL)

## CC[C@H](C)[C@H](NC(=O)[C@H](CCCCN)NC(=O)[C@H](CCCCN)NC(=O)[C@H](Cc1c[nH]c2ccccc12)NC(=O)[C@@H](NC(=O)[C@H](CCCCN)NC(=O)[C@H](Cc1c[nH]c2ccccc12)NC(=O)[C@@H](N)CC(C)C)[C@@H](C)CC)C(=O)N[C@@H](Cc1c[nH]c2ccccc12)C(=O)N[C@@H](CCCN=C(N)N)C(=O)N[C@H](C(=O)N[C@@H](Cc1c[nH]c2ccccc12)C(=O)N[C@@H](Cc1c[nH]c2ccccc12)C(=O)N[C@@H](CC(N)=O)C(=O)N[C@@H](Cc1c[nH]c2ccccc12)C(=O)N[C@@H](CCCN=C(N)N)C(=O)O)C(C)C [LWKIWKKIWRVWWNWR]
[4]
  MIC: 13.1 µM (≈ 31.3 µg/mL)
[5]
  MIC: ≥ 53.7 µM
[6]
  MIC: 53.7 µM (≈ 128 µg/mL)
[7]
  MIC: 26.8 µM (≈ 64 µg/mL)

## CC[C@H](C)[C@H](NC(=O)[C@H](CCCCN)NC(=O)[C@H](CCCCN)NC(=O)[C@@H](N)CC(C)C)C(=O)NCC(=O)N[C@@H](CCCCN)C(=O)N[C@@H](CCCCN)C(=O)N[C@H](C(=O)N[C@@H](Cc1c[nH]c2ccccc12)C(=O)N[C@@H](CCCN=C(N)N)C(=O)N[C@H](C(=O)NCC(=O)O)C(C)C)[C@@H](C)CC [LKKIGKKIWRVG]
[4]
  MIC: ≥ 89.8 µM
[5]
  MIC: ≥ 89.8 µM
[8]
  MIC: ≥ 89.8 µM
[7]
  MIC: ≥ 89.8 µM

## CC(C)C[C@H](NC(=O)[C@H](C)NC(=O)[C@H](CCCCN)NC(=O)[C@H](C)NC(=O)[C@H](C)NC(=O)CNC(=O)[C@H](CCCCN)NC(=O)[C@H](CC(C)C)NC(=O)[C@H](CC(C)C)NC(=O)[C@H](CC(=O)O)NC(=O)[C@H](CCCCN)NC(=O)[C@H](Cc1ccccc1)NC(=O)CN)C(=O)N[C@H](C(=O)N[C@@H](CCCCN)C(=O)N[C@H](C(=O)N[C@H](C(=O)N[C@@H](CC(C)C)C(=O)N[C@@H](Cc1ccccc1)C(=O)O)C(C)C)[C@@H](C)O)C(C)C [GFKDLLKGAAKALVKTVLF]
[9]
  MIC: 50 µM (≈ 101 µg/mL)
[10]
  MIC: > 100 µM
[11]
  MIC: 25 µM (≈ 50.5 µg/mL)
[12]
  MIC: 25 µM (≈ 50.5 µg/mL)
[13]
  MIC: ≥ 100 µM
[14]
  MIC: ≥ 50 µM
[15]
  MIC: 13 µM (≈ 26.3 µg/mL)
[16]
  MIC: 6 µM (≈ 12.1 µg/mL)
[17]
  MIC: ≥ 100 µM

## CC[C@H](C)[C@H](NC(=O)CN)C(=O)N[C@@H](CCCCN)C(=O)N[C@@H](CC(=O)O)C(=O)N[C@@H](Cc1c[nH]c2ccccc12)C(=O)N[C@H](C(=O)N[C@@H](CCCCN)C(=O)NCC(=O)N[C@@H](C)C(=O)N[C@@H](C)C(=O)N[C@@H](CCCCN)C(=O)N[C@@H](CCCCN)C(=O)N[C@@H](CC(C)C)C(=O)N[C@H](C(=O)N[C@@H](CCCCN)C(=O)N[C@H](C(=O)N[C@H](C(=O)N[C@@H](C)C(=O)N[C@@H](CO)C(=O)N[C@@H](Cc1cnc[nH]1)C(=O)N[C@H](C(=O)N[C@@H](C)C(=O)N[C@@H](CC(N)=O)C(=O)N[C@@H](CCC(N)=O)C(=O)O)[C@@H](C)CC)C(C)C)[C@@H](C)O)[C@@H](C)CC)[C@@H](C)CC [GIKDWIKGAAKKLIKTVASHIANQ]
[9]
  MIC: 13 µM (≈ 33.7 µg/mL)
[10]
  MIC: > 100 µM
[11]
  MIC: 13 µM (≈ 33.7 µg/mL)
[12]
  MIC: 13 µM (≈ 33.7 µg/mL)
[13]
  MIC: ≥ 100 µM
[14]
  MIC: ≥ 50 µM
[15]
  MIC: 6 µM (≈ 15.5 µg/mL)
[16]
  MIC: 6 µM (≈ 15.5 µg/mL)
[17]
  MIC: ≥ 100 µM

## CC[C@H](C)[C@H](NC(=O)CNC(=O)[C@H](CCCCN)NC(=O)[C@H](C)NC(=O)[C@@H](NC(=O)[C@H](CCCCN)NC(=O)[C@@H](N)CC(C)C)[C@@H](C)CC)C(=O)N[C@H](C(=O)N[C@@H](CCCCN)C(=O)N[C@@H](CO)C(=O)N[C@@H](CC(C)C)C(=O)O)[C@@H](C)CC [LKIAKGIIKSL]
[18]
  MIC: ≥ 84.5 µM
[19]
  MIC: ≥ 84.5 µM
[20]
  MIC: ≥ 84.5 µM
[21]
  MIC: ≥ 84.5 µM
[22]
  MIC: > 84.5 µM
[23]
  MIC: ≥ 84.5 µM
[16]
  MIC: > 84.5 µM
[24]
  MIC: > 84.5 µM
[25]
  MIC: > 84.5 µM

## CC[C@H](C)[C@H](NC(=O)[C@H](CCCN=C(N)N)NC(=O)[C@H](Cc1c[nH]c2ccccc12)NC(=O)[C@H](CCCN=C(N)N)NC(=O)[C@@H](N)C(C)C)C(=O)N[C@@H](CCCN=C(N)N)C(=O)N[C@H](C(=O)N[C@@H](C)C(=O)N[C@H](C(=O)N[C@H](C(=O)N[C@@H](CCCN=C(N)N)C(=O)N[C@@H](C)C(=O)O)[C@@H](C)CC)C(C)C)C(C)C [VRWRIRVAVIRA]
[26]
  MIC: 1.07 µM (≈ 1.6 µg/mL)
[27]
  MIC: 8 µM (≈ 12 µg/mL)
[28]
  MIC: 8 µM (≈ 12 µg/mL)
[29]
  MIC: 4.01 µM (≈ 6 µg/mL)
[21]
  MIC: 1.07 µM (≈ 1.6 µg/mL)
[30]
  MIC: 16 µM (≈ 23.9 µg/mL)
[31]
  MIC: 4.01 µM (≈ 6 µg/mL)
[32]
  MIC: 16 µM (≈ 23.9 µg/mL)
[24]
  MIC: 8.03 µM (≈ 12 µg/mL)
[25]
  MIC: 8.03 µM (≈ 12 µg/mL)
